Key:
ABUTH [1] = experiment: Pre-emergence herbicidal action against ABUTH; format: in vivo, Abutilon theophrasti; details: Abutilon theophrasti, 504 h, 80 g/ha, scored visually after 3 weeks vs untreated controls (100% = plants have died, 0% = like control plants)
Summary of the method: (§1)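 Sandy loam pots, seeds covered with soil, then surface-treated with WP or EC formulations at 600–800 l/ha water plus 0.2% wetting agent. Greenhouse, 3 weeks. Percent damage vs untreated controls.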

ALOMY = experiment: Pre-emergence herbicidal action against ALOMY; format: in vivo, Alopecurus myosuroides; details: Alopecurus myosuroides, 504 h; 80 g/ha, pre-emergence, scored visually after 3 weeks vs untreated controls (100% = plants have died, 0% = like control plants)
Summary of the method: as §1

AMARE [2] = experiment: Pre-emergence herbicidal action against AMARE; format: in vivo, Amaranthus retroflexus; details: Amaranthus retroflexus, 504 h, scored visually after 3 weeks vs untreated controls, 100% = plants have died, 0% = like control plants
Summary of the method: as §1

AVEFA [3] = experiment: Pre-emergence herbicidal action against AVEFA; format: in vivo, Avena fatua; details: Avena fatua, 504 h, pre-emergence
Summary of the method: as §1

ECHCG [4] = experiment: Pre-emergence herbicidal action against ECHCG; format: in vivo, Echinochloa crus-galli; details: Echinochloa crus-galli, 504 h, 80 g/ha
Summary of the method: as §1

MATIN = experiment: Pre-emergence herbicidal action against MATIN; format: in vivo, Matricaria inodora; details: Tripleurospermum inodorum, 504 h; for pest or weed control at 20 g/ha: dosage 20 g/ha; for pest or weed control at 80 g/ha: dosage 80 g/ha
Summary of the method: as §1

SETVI [5] = experiment: Pre-emergence herbicidal action against SETVI; format: in vivo, Setaria viridis; details: Setaria viridis, 504 h, dosage 80 g/ha
Summary of the method: as §1

VIOTR [6] = experiment: Pre-emergence herbicidal action against VIOTR; format: in vivo, Viola tricolor; details: Viola tricolor, 504 h; for pest or weed control at 80 g/ha: dosage 80 g/ha
Summary of the method: as §1

DIGSA = experiment: Pre-emergence herbicidal action against DIGSA; format: in vivo, Digitaria sanguinalis; details: Digitaria sanguinalis, 504 h; for pest or weed control at 80 g/ha: dosage 80 g/ha
Summary of the method: as §1

ABUTH [7] = experiment: Post-emergence herbicidal action against ABUTH; format: in vivo, Abutilon theophrasti; details: Abutilon theophrasti, 504 h, dosage 20 g/ha, visual assessment about 3 weeks after treatment vs untreated controls
Summary of the method: (§2)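 Herbicidal action is a visual percentage rating (0% = as untreated control, 100% = plants dead) made roughly 3 weeks after treatment. Plants were grown in sandy loam in the greenhouse and treated at the one-leaf stage, 2 to 3 weeks post-sowing. Treatment was a foliar spray of wettable-powder or emulsion-concentrate formulations at 600 to 800 l/ha water plus 0.2% wetting agent.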

AVEFA [8] = experiment: Post-emergence herbicidal action against AVEFA; format: in vivo, Avena fatua; details: Avena fatua, 504 h, visual assessment about 3 weeks after treatment, 100% = plants have died, 0% = like control plants
Description: Seeds of monocotyledonous and dicotyledonous weed and crop plants are laid out in sandy loam soil in wood-fiber pots, covered with soil and cultivated in a greenhouse under good growth conditions. 2 to 3 weeks after sowing, the test plants are treated at the one-leaf stage. The compounds of the invention, formulated in the form of wettable powders (WP) or as emulsion concentrates (EC), are then sprayed onto the green parts of the plants in the form of an aqueous suspension or emulsion at a water application rate equivalent to 600 to 800 l/ha, with addition of 0.2% wetting agent. After the test plants have been left to stand in the greenhouse under optimal growth conditions for about 3 weeks, the action of the preparations is assessed visually in comparison to untreated controls (herbicidal action in percent (%): 100% activity=the plants have died, 0% activity=like control plants). […] The tables below illustrate, in an illustrative manner, the post-emergence herbicidal action of the compounds of the invention, the herbicidal activity being stated in percent.

ECHCG [9] = experiment: Post-emergence herbicidal action against ECHCG; format: in vivo, Echinochloa crus-galli; details: Echinochloa crus-galli, 504 h, dosage 20 g/ha
Summary of the method: as §2

SETVI [10] = experiment: Post-emergence herbicidal action against SETVI; format: in vivo, Setaria viridis; details: Setaria viridis, 504 h, dosage 20 g/ha
Summary of the method: as §2

STEME = experiment: Pre-emergence herbicidal action against STEME; format: in vivo, Stellaria media; details: Stellaria media, 504 h, dosage 80 g/ha
Text: Seeds of monocotyledonous and dicotyledonous weed plants and crop plants are laid out in sandy loam soil in wood-fiber pots and covered with soil. The compounds of the invention, formulated in the form of wettable powders (WP) or as emulsion concentrates (EC), are then applied to the surface of the covering soil in the form of an aqueous suspension or emulsion at a water application rate equivalent to 600 to 800 l/ha, with addition of 0.2% wetting agent. After the treatment, the pots are placed in a greenhouse and kept under good growth conditions for the trial plants. The damage to the test plants is scored visually after a test period of 3 weeks by comparison with untreated controls (herbicidal activity in percent (%): 100% activity=the plants have died, 0% activity=like control plants). […] The tables below illustrate, in an illustrative manner, the post-emergence herbicidal action of the compounds of the invention, the herbicidal activity being stated in percent.

AMARE [11] = experiment: Post-emergence herbicidal action against AMARE; format: in vivo, Amaranthus retroflexus; details: Amaranthus retroflexus, 504 h, 20 g/ha, visual assessment about 3 weeks after treatment, 100% = plants have died, 0% = like control plants
Summary of the method: as §2

VIOTR [12] = experiment: Post-emergence herbicidal action against VIOTR; format: in vivo, Viola tricolor; details: Viola tricolor, 504 h
Summary of the method: as §2

POLCO = experiment: Pre-emergence herbicidal action against POLCO; format: in vivo, Polygonum convolvulus; details: Fallopia convolvulus, 504 h
Summary of the method: as §1

VERPE = experiment: Pre-emergence herbicidal action against VERPE; format: in vivo, Veronica persica; details: Veronica persica, 504 h
Summary of the method: as §1

SMILES	pest or weed control at 80 g/ha (ABUTH [1]) [%]	pest or weed control at 20 g/ha (AMARE [2]) [%]	pest or weed control at 80 g/ha (AMARE [2]) [%]	pest or weed control at 20 g/ha (MATIN) [%]	pest or weed control at 80 g/ha (MATIN) [%]	pest or weed control at 80 g/ha (VIOTR [6]) [%]	pest or weed control at 80 g/ha (DIGSA) [%]	pest or weed control at 20 g/ha (ABUTH [7]) [%]	pest or weed control at 80 g/ha (STEME) [%]	pest or weed control at 20 g/ha (AMARE [11]) [%]	pest or weed control at 20 g/ha (VIOTR [12]) [%]	other results
Cc1c(C(=O)Nc2nnnn2C)ccc(C(F)(F)F)c1C(=O)NCC(F)(F)F [Example 1-29]	100	100	100	100	100	100	100	80	–	–	–	pest or weed control at 80 g/ha (ALOMY): 100%; pest or weed control at 80 g/ha (AVEFA [3]; 80 g/ha): 90%; pest or weed control at 20 g/ha (AVEFA [3]; 20 g/ha, scored visually after 3 weeks, 100% = plants have died, 0% = like control plants): 80%; pest or weed control at 80 g/ha (ECHCG [4]): 90%; pest or weed control at 80 g/ha (SETVI [5]): 100%; pest or weed control at 20 g/ha (VIOTR [6]; dosage 20 g/ha): 100%; pest or weed control at 20 g/ha (DIGSA; dosage 20 g/ha): 100%; pest or weed control at 5 g/ha (AVEFA [8]; 5 g/ha): 80%; pest or weed control at 20 g/ha (AVEFA [8]; 20 g/ha): 90%; pest or weed control at 20 g/ha (ECHCG [9]): 80%; pest or weed control at 20 g/ha (SETVI [10]): 80%
CNC(=O)c1c(S(C)(=O)=O)ccc(C(=O)Nc2nnnn2C)c1Cl [Example 1-123]	100	80	100	80	100	80	90	80	90	80	100	–
Cn1nnnc1NC(=O)c1ccc(S(C)(=O)=O)c(C(=O)NC2CC2)c1Cl [Example 1-125]	–	90	100	80	100	100	90	–	100	80	100	pest or weed control at 20 g/ha (POLCO; dosage 20 g/ha): 80%; pest or weed control at 80 g/ha (POLCO; dosage 80 g/ha): 80%; pest or weed control at 20 g/ha (VERPE; dosage 20 g/ha): 80%; pest or weed control at 80 g/ha (VERPE; dosage 80 g/ha): 80%; pest or weed control at 5 g/ha (VIOTR [12]; 5 g/ha): 100%
